Tests used:
Type in all cases: physicochemical
[1] = Solubility of buffer material in methanol at room temperature
[2] = Solubility of fullerene compounds in toluene; conditions: mixed at 40° C., returned to 25° C.
Method: With regard to the solubility of various fullerene compounds, a powder of a fullerene derivative and toluene were mixed at 40° C. The amount of toluene used at this time was a minimum amount at which dissolution was confirmed at 40° C. Thereafter, temperature was returned to 25° C. and no precipitation was confirmed. The concentration of the toluene on this occasion was regarded as the solubility. In the case where precipitation was observed, toluene was further added until dissolution, and the concentration of the toluene at the time when dissolution was finally confirmed was regarded as the solubility.

[3] = Solubility in THF noted during cyclic voltammetry; conditions: cyclic voltammetry conditions
Method: Thus, using a mixed solvent of o-dichlorobenzene and acetonitrile (4:1, volume ratio) instead of THF, the cyclic voltammetry was performed.

Compound	Solubility (MeOH, room temperature)/% by weight [1]	Solubility (% by weight) [2]	Solubility in THF [3]
c1ccc(-n2c(-c3cc(-c4nc5ccccc5n4-c4ccccc4)cc(-c4nc5ccccc5n4-c4ccccc4)c3)nc3ccccc32)cc1 [TPBi]	<0.01 % by weight	–	–
O=P(c1ccccc1)(c1ccccc1)c1ccc2ccccc2c1-c1c(P(=O)(c2ccccc2)c2ccccc2)ccc2ccccc12 [BINAPO]	4 % by weight	–	–
O=P(c1ccccc1)(c1ccccc1)c1ccc2c(c1)C1(c3ccccc3-c3ccccc31)c1cc(P(=O)(c3ccccc3)c3ccccc3)ccc1-2 [POSFPO]	0.5 % by weight	–	–
O=P(c1ccccc1)(c1ccccc1)c1cccc(-c2cc(-c3ccccc3)cc(-c3cccc(P(=O)(c4ccccc4)c4ccccc4)c3)n2)c1 [PO(TPP)PO]	>8 % by weight	–	–
1-(3-methoxycarbonyl)propyl-1-phenyl(6,6)-C60 [PCBM]	–	1.5 % by weight	–
O=P(c1ccccc1)(c1ccc2ccc3cccc4ccc1c2c34)c1ccc2ccc3cccc4ccc1c2c34 [POPy2]	<0.01 % by weight	–	–
O=P(c1ccccc1)(c1ccccc1)c1ccccc1 [POPh3]	>5.0 % by weight	–	–
c1ccc(-c2cc(-c3ccc4ccccc4c3)nc3c2ccc2c(-c4ccccc4)cc(-c4ccc5ccccc5c4)nc23)cc1 [NBPhen]	<0.01 % by weight	–	–
Cc1cc(-c2ccccc2)c2ccc3c(-c4ccccc4)cc(C)nc3c2n1 [BCP, 2,9-dimethyl-4,7-diphenyl-1,10-phenanthroline]	0.1 % by weight	–	–
O=P(c1ccccc1)(c1ccccc1)c1ccc2c(c1)c1cc(P(=O)(c3ccccc3)c3ccccc3)ccc1n2-c1ccccc1 [POCzPO]	>8 % by weight	–	–
c12c3c4c5c1c1c6c7c2c2c8c3c3c9c4c4c%10c5c5c1c1c6c6c%11c7c2c2c7c8c3c3c8c9c4c4c9c%10c5c5c1c1c6c6c%11c2c2c7c3c3c8c4c4c9c5c1c1c6c2c3c41 [C60, fullerene]	–	0.3 % by weight	sparingly soluble
O=P(c1ccccc1)(c1ccccc1)c1c(F)c(F)c(-c2c(F)c(F)c(P(=O)(c3ccccc3)c3ccccc3)c(F)c2F)c(F)c1F [POFBPO]	1 % by weight	–	–

— US20120211082A1, “PHOTOELECTRIC CONVERSION DEVICE AND SOLAR CELL USING THE SAME” (MITSUBISHI CHEMICAL CORPORATION, priority 2009, published 2012)
